Experimental data taken from US11098082B2, “Antigenic peptides and uses thereof for diagnosing and treating autism” (The Regents of the University of California, priority 2015, dated 2021).

Legend:
Assay type in all cases: binding, human
maternal autoantibodies = assay: validation peptide microarray incubated with maternal plasma samples (ASD vs TD mothers); conditions: for binding by autoantibodies, ASD samples compared with TD samples: in words; for Number (%) Positive In ASD / Number Positive In ASD (n = 46): plasma of mothers of children with ASD, n = 46; for Number Positive In ASD (n = 46): peptide called positive (reactive) per sample; for Number (%) Positive In TD / Number Positive In TD (n = 21): plasma of mothers of typically developing children, n = 21
[1] = test system: autoantibodies present in a maternal sample; assay: STIP1 peptide ELISA with maternal plasma samples; conditions: plasma 1:400; for Final (absorbance, average minus blank): 450 nm; for Average (absorbance): 450 nm with 490 nm reference, duplicate
From the text: The peptides of Table 2 were synthesized with a linker and biotinylated. In particular, each biotinylated peptide was biotin-SGSS-peptide-DKP with SGSS (SEQ ID NO: 121) as the spacer and a diketopiperazine (DKP) group at the C-terminus of the peptide. Pierce® NeutrAvidin® protein coated microwell plates (Thermo Scientific) were washed with PBST and excess buffer was removed from the wells. The biotinylated peptides were reconstituted in pure solvent (e.g., DMSO or DMF) or a solvent/water mixture. The reconstituted peptide was diluted […] in ultra pure water to a final concentration of 5 μg/ml. 100 μl of the diluted biotinylated peptide was dispensed into the wells and incubated for 1 hour at room temperature or overnight at 4° C. on a slow rocker. Reference wells were left uncoated but filled with buffer. Nonspecific binding sites were blocked by incubation with 200 μl of a 5% Pierce® Superblock™ PBS solution for 2 hours at room temperature. Subsequently, the plates were washed six times with PBST using an automated plate washer.
The following method adapted from Sanchez et al. (Cancer Chemother. Pharmacol., 66: 919-925 (2010)) was used to detect maternal antibodies against one or more of the peptides of the ELISA-based assay described above: Maternal plasma samples were obtained including samples predetermined to be reactive to the full-length antigens of the peptides in the assay. The test samples were diluted in sample diluent (e.g., 2.5% Pierce® Superblock™ in PBST) and 100 μl of each sample was added to the wells of the assay plate. All samples were analyzed in duplicate in both peptide-coated and uncoated wells. The diluted samples were incubated for 1 hour at room temperature. The plates were then washed six times with PBST. The labeled secondary antibody solution (e.g., horseradish peroxidase-conjugated goat anti-human IgG, Invitrogen) was added to the wells and incubated for 30 minutes at room temperature. The plates were again washed eight times with PBST. The plates were then washed with PBS without Tween twice. The BD Opt EIA™ substrate (BD Biosciences Pharmingen, San Diego, Calif.) was added to the wells and incubated at room temperature for 10 minutes. The STOP solution (2N H2SO4) was added and the plate was read at 450 nm using a reference filter at 490 nm.
In particular, four maternal plasma samples were tested for their reactivity to a STIP1 peptide having the amino acid sequence PPPPPPKKETKPEPM (SEQ ID NO:22) using the following peptide ELISA protocol: • 1. Bring all reagents to room temperature. • 2. Peptides were diluted in ultra pure water from peptide stock (1 mg/mL) to a final concentration of 5 μg/mL. • 3. Add 100 μl of each peptide to corresponding wells on 96-well NeutrAvidin coated plate. • 4. Incubate plate for 1 hour at room temperature. • 5. Wash plate six times with PBS with 0.05% Tween. • 6. Add 200 μl of 5% Superblock to each well and incubated for 2 hours at room temperature. • 7. Wash plate six times with PBS with 0.05% Tween. • 8. Dilute maternal plasma samples 1:400 in sample buffer (2.5% Superblock in PBS with 0.05% Tween). • 9. Add 100 μl of diluted plasma samples to wells and incubate for 1 hour at room temperature. • 10. Wash plate six times with PBS with 0.05% Tween. • 11. Dilute Goat Anti-Human antibody 1:2,500 in PBS with 0.05% Tween. • 12. Add 100 μl of diluted Goat Anti-Human antibody to wells and incubate for 30 minutes at room temperature. • 13. Wash plate eight times with PBS with 0.05% Tween and two times with PBS Neat. • 14. Add 100 μl of BD Opt EIA substrate to each well. • 15. Incubate plate in the dark for 10 minutes at room temperature. • 16. Add 50 μl of H2SO4 to each well to stop chemical reaction. • 17. Read plate on reduced setting on spectrophotometer at 450 nm with 490 nm reference.
The samples were run in duplicate and the absorbance values were averaged. […]

[2] = test system: autoantibodies present in a maternal sample; assay: ELISA with the full-length STIP1 polypeptide; conditions: Sample No. 1190
[3] = Sample No. 99 (Medium Reactivity)
[4] = Sample No. 1190 (Highly Reactive)
[5] = Sample No. 1887 (Low Reactivity)

Substance: IAPVAEEEATVPNNKIT [SEQ ID NO: 66]
- binding by autoantibodies, ASD samples compared with TD samples (maternal autoantibodies): only bound by autoantibodies when the microarrays were incubated with plasma samples obtained from mothers whose children had a diagnosis of ASD
- Number (%) Positive In ASD (maternal autoantibodies): 4%
- Number Positive In ASD (n = 46) (maternal autoantibodies): 2
- Number (%) Positive In TD (maternal autoantibodies): 0%
- Number Positive In TD (n = 21) (maternal autoantibodies): 0

Substance: LQTPKIVADKDYSVTAN [SEQ ID NO: 71]
- binding by autoantibodies, ASD samples compared with TD samples (maternal autoantibodies): only bound by autoantibodies when the microarrays were incubated with plasma samples obtained from mothers whose children had a diagnosis of ASD
- Number (%) Positive In ASD (maternal autoantibodies): 2%
- Number Positive In ASD (n = 46) (maternal autoantibodies): 1
- Number (%) Positive In TD (maternal autoantibodies): 0%
- Number Positive In TD (n = 21) (maternal autoantibodies): 0

Substance: DCIIIVVSNPVDILT [SEQ ID NO: 12]
- binding by autoantibodies, ASD samples compared with TD samples (maternal autoantibodies): only bound by autoantibodies when the microarrays were incubated with plasma samples obtained from mothers whose children had a diagnosis of ASD
- Number (%) Positive In ASD (maternal autoantibodies): 11%
- Number Positive In ASD (n = 46) (maternal autoantibodies): 5
- Number (%) Positive In TD (maternal autoantibodies): 0%
- Number Positive In TD (n = 21) (maternal autoantibodies): 0

Substance: PPPPPPKKETKPEPM [SEQ ID NO: 22]
- Final (absorbance, average minus blank) [1, 3]: 0.483
- Average (absorbance) [1, 3]: 1.482
- Final (absorbance, average minus blank) ([1]; Sample No. 142 (Negative)): 0.093
- Average (absorbance) ([1]; Sample No. 142 (Negative)): 1.295
- Final (absorbance, average minus blank) [1, 4]: 2.045
- Average (absorbance) [1, 4]: 2.442
- Final (absorbance, average minus blank) [1, 5]: 0.129
- Average (absorbance) [1, 5]: 2.101

Substance: MDLNDTFPEYKETIE (MDLNDTFPEYKETTE) [SEQ ID NO: 27]
- Number (%) Positive In ASD (maternal autoantibodies): 17%
- Number Positive In ASD (n = 46) (maternal autoantibodies): 8
- Number (%) Positive In TD (maternal autoantibodies): 5%
- Number Positive In TD (n = 21) (maternal autoantibodies): 1

Substance: VDLGSMDEEEEIATP [SEQ ID NO: 21]
- Number (%) Positive In ASD (maternal autoantibodies): 13%
- Number Positive In ASD (n = 46) (maternal autoantibodies): 6
- Number (%) Positive In TD (maternal autoantibodies): 5%
- Number Positive In TD (n = 21) (maternal autoantibodies): 1

Substance: VDVIEDKLKGEMMDL [SEQ ID NO: 3]
- Number (%) Positive In ASD (maternal autoantibodies): 15%
- Number Positive In ASD (n = 46) (maternal autoantibodies): 7
- Number (%) Positive In TD (maternal autoantibodies): 10%
- Number Positive In TD (n = 21) (maternal autoantibodies): 2

Substance: MAERKQSGKAAEDEE [SEQ ID NO: 45]
- Number (%) Positive In ASD (maternal autoantibodies): 22%
- Number Positive In ASD (n = 46) (maternal autoantibodies): 10
- Number (%) Positive In TD (maternal autoantibodies): 5%
- Number Positive In TD (n = 21) (maternal autoantibodies): 1

Substance: VLLGVDLGSMDEEEE [SEQ ID NO: 20]
- Number (%) Positive In ASD (maternal autoantibodies): 30%
- Number Positive In ASD (n = 46) (maternal autoantibodies): 14
- Number (%) Positive In TD (maternal autoantibodies): 19%
- Number Positive In TD (n = 21) (maternal autoantibodies): 4

Substance: TPKIVADKDYSVTAN [SEQ ID NO: 11]
- binding by autoantibodies, ASD samples compared with TD samples (maternal autoantibodies): only bound by autoantibodies when the microarrays were incubated with plasma samples obtained from mothers whose children had a diagnosis of ASD
- Number (%) Positive In ASD (maternal autoantibodies): 2%
- Number Positive In ASD (n = 46) (maternal autoantibodies): 1
- Number (%) Positive In TD (maternal autoantibodies): 0%
- Number Positive In TD (n = 21) (maternal autoantibodies): 0

Substance: full-length STIP1 polypeptide: full-length stress-induced phosphoprotein 1 (STIP1) polypeptide used in a comparison ELISA
- absorbance value [2]: ~1.0

Substance: VPRGLYDGPVCEVSV [SEQ ID NO: 60]
- Number (%) Positive In ASD (maternal autoantibodies): 17%
- Number Positive In ASD (n = 46) (maternal autoantibodies): 8
- Number (%) Positive In TD (maternal autoantibodies): 5%
- Number Positive In TD (n = 21) (maternal autoantibodies): 1

Substance: ETVEFDVVEGEKGAE [SEQ ID NO: 32]
- Number (%) Positive In ASD (maternal autoantibodies): 11%
- Number Positive In ASD (n = 46) (maternal autoantibodies): 5
- Number (%) Positive In TD (maternal autoantibodies): 5%
- Number Positive In TD (n = 21) (maternal autoantibodies): 1

Substance: PAAPPAAPALSAADT [SEQ ID NO: 28]
- Number (%) Positive In ASD (maternal autoantibodies): 41%
- Number Positive In ASD (n = 46) (maternal autoantibodies): 19
- Number (%) Positive In TD (maternal autoantibodies): 29%
- Number Positive In TD (n = 21) (maternal autoantibodies): 6

Substance: VVPEPGSSLLTSFEK [SEQ ID NO: 36]
- binding by autoantibodies, ASD samples compared with TD samples (maternal autoantibodies): only bound by autoantibodies when the microarrays were incubated with plasma samples obtained from mothers whose children had a diagnosis of ASD
- Number (%) Positive In ASD (maternal autoantibodies): 4%
- Number Positive In ASD (n = 46) (maternal autoantibodies): 2
- Number (%) Positive In TD (maternal autoantibodies): 0%
- Number Positive In TD (n = 21) (maternal autoantibodies): 0

Substance: PVAEEEATVPNNKIT [SEQ ID NO: 9]
- binding by autoantibodies, ASD samples compared with TD samples (maternal autoantibodies): only bound by autoantibodies when the microarrays were incubated with plasma samples obtained from mothers whose children had a diagnosis of ASD
- Number (%) Positive In ASD (maternal autoantibodies): 7%
- Number Positive In ASD (n = 46) (maternal autoantibodies): 3
- Number (%) Positive In TD (maternal autoantibodies): 0%
- Number Positive In TD (n = 21) (maternal autoantibodies): 0

Substance: VDITSWYDGVREELE [SEQ ID NO: 38]
- Number (%) Positive In ASD (maternal autoantibodies): 26%
- Number Positive In ASD (n = 46) (maternal autoantibodies): 12
- Number (%) Positive In TD (maternal autoantibodies): 14%
- Number Positive In TD (n = 21) (maternal autoantibodies): 3

Substance: HNSSLEYNIFEGMEC [SEQ ID NO: 55]
- Number (%) Positive In ASD (maternal autoantibodies): 35%
- Number Positive In ASD (n = 46) (maternal autoantibodies): 16
- Number (%) Positive In TD (maternal autoantibodies): 19%
- Number Positive In TD (n = 21) (maternal autoantibodies): 4

Substance: KTISAKTHNSSLEYN [SEQ ID NO: 54]
- binding by autoantibodies, ASD samples compared with TD samples (maternal autoantibodies): only bound by autoantibodies when the microarrays were incubated with plasma samples obtained from mothers whose children had a diagnosis of ASD
- Number (%) Positive In ASD (maternal autoantibodies): 2%
- Number Positive In ASD (n = 46) (maternal autoantibodies): 1
- Number (%) Positive In TD (maternal autoantibodies): 0%
- Number Positive In TD (n = 21) (maternal autoantibodies): 0
